Non-standard residues stand in square brackets, D forms with d. Residues, ends and D or L forms follow the SMILES beside them. Sar = CNCC(=O)O

Eight compounds from ChEMBL document CHEMBL2073748, “Na(+)-dependent carnitine transport by organic cation transporter (OCTN2): its pharmacological and toxicological relevance” (J Pharmacol Exp Ther, 1999) can be followed below.

What all share (type): functional, cell-based
For data set [1], the target named is T1, Organic cation/carnitine transporter 2 (Homo sapiens, UniProt O76082).
T1 sequence (O76082 whole entry): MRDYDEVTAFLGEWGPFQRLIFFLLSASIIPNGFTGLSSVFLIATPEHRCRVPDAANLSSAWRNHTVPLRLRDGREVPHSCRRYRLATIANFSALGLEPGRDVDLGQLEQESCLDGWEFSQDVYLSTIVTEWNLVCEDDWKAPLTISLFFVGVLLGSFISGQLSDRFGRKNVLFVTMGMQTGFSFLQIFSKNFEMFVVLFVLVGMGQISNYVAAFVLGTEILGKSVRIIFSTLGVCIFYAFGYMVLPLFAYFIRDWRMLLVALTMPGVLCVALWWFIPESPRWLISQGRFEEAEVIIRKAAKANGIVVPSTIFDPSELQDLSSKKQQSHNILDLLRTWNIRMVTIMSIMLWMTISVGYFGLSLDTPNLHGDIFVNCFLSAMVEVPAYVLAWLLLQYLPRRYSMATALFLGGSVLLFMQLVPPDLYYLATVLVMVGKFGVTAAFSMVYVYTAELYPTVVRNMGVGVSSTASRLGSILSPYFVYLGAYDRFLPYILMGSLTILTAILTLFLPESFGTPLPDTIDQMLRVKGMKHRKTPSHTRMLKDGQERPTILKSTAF
In words: TP_TRANSPORTER: inhibition of Carnitine uptake (Carnitine: 0.010? uM, PAH: 500 uM) in OCTN2-expressing HEK293 cells. The conditions noted are these: hek293, 500 µM.

The target of data set [2] is T1, Organic cation/carnitine transporter 2. In words: TP_TRANSPORTER: uptake in OCTN2-expressing HEK293 cells.
For data set [3] the target is unchanged. The data set can be described thus: TP_TRANSPORTER: inhibition of Carnitine uptake (Carnitine: 0.010? uM, Norfloxacin: 500 uM) in OCTN2-expressing HEK293 cells. The conditions noted are these: hek293, 500 µM.
Data set [4] has the same target. The data set can be described thus: TP_TRANSPORTER: inhibition of Carnitine uptake (Carnitine: 0.010? uM, Gly-Sar: 500 uM) in OCTN2-expressing HEK293 cells. The following applies: hek293, 500 µM.
For data set [5] the target is unchanged. The data set can be described thus: TP_TRANSPORTER: inhibition of Carnitine uptake (Carnitine: 0.010? uM, NMN: 500 uM) in OCTN2-expressing HEK293 cells. The conditions noted are these: hek293, 500 µM.
Data set [6] shares this target. The data set can be described thus: TP_TRANSPORTER: inhibition of Carnitine uptake (Carnitine: 0.010? uM, Pivalate: 500 uM) in OCTN2-expressing HEK293 cells. The conditions noted are these: hek293, 500 µM.
The target is the same in data set [7]. In words: TP_TRANSPORTER: inhibition of Carnitine uptake (Carnitine: 0.010? uM, SPLX: 500 uM) in OCTN2-expressing HEK293 cells. The conditions noted are these: hek293, 500 µM.
The target is the same in data set [8]. The data set can be described thus: TP_TRANSPORTER: inhibition of Carnitine uptake (Carnitine: 0.010? uM, alphaKG: 500 uM) in OCTN2-expressing HEK293 cells. The following applies: hek293, 500 µM.
The target is the same in data set [9]. The data set can be described thus: TP_TRANSPORTER: inhibition of Carnitine uptake (Carnitine: 0.010? uM, Guanidine: 500 uM) in OCTN2-expressing HEK293 cells. The conditions noted are these: hek293, 500 µM.

For the compound `Nc1ccc(C(=O)NCC(=O)O)cc1` [AMINOHIPPURIC ACID], the values for the Activity result in data set [1] and in data set [2] were “is not an inhibitor [-]” and “is not a substrate [-]”, respectively.

For `CCn1cc(C(=O)O)c(=O)c2cc(F)c(N3CCNCC3)cc21` [NORFLOXACIN], the Activity result in data set [3] was “is not an inhibitor [-]”.

`CN(CC(=O)O)C(=O)CN` [GLYCYLSARCOSINE] (H-Gly-[Sar]-OH): the Activity result in [4] was “is not an inhibitor [-]”.

On to `CNC(=O)c1cccnc1` [NICOTINYL METHYLAMIDE], for which the Activity result in data set [5] is “is not an inhibitor [-]”.

In the case of `CC(C)(C)C(=O)O` [PIVALATE], the Activity entry in data set [6] is “is not an inhibitor [-]”.

With `C[C@@H]1CN(c2c(F)c(N)c3c(=O)c(C(=O)O)cn(C4CC4)c3c2F)C[C@H](C)N1` [SPARFLOXACIN], the Activity result in data set [7] was “is not an inhibitor [-]”.

Regarding `O=C(O)CCC(=O)C(=O)O` [ALPHA-KETOGLUTARIC ACID], the Activity result in data set [8] was “is not an inhibitor [-]”.

For `N=C(N)N` [GUANIDINE], the figures for the Activity result in data set [2] and in [9] were “is not a substrate [-]” and “is not an inhibitor [-]”, respectively.
